Like-named read-outs stand apart in the source and are kept apart here. Values belong to the compound of their own block, whether it stands above or below them.
Legend:
[1] = tested on: Q-less coq3 yeast
Method: Wild-type, yeast Q-less coq3, or respiratory deficient con 1 null mutants were incubated in the presence of 200 μM of LA and D2-LA at different ratios of PUFAs. Serial dilutions (1:5) starting at 0.2 OD/ml were spotted on YPD solid plate medium. A zero-time untreated control is shown on the top left. Growth at 30° C.
Wild-type, yeast Q-less coq3, or respiratory deficient con 1 null mutants were incubated in the presence of 200 μM of ALA and D4-LA at different ratios of PUFAs. Serial dilutions (1:5) starting at 0.2 OD/ml were spotted on YPD solid plate medium. Growth at 30° C.
Wild-type, yeast Q-less coq3, or respiratory deficient cor1 null mutants were incubated in the presence of 200 μM of LA and D2-LA at different ratios of PUFAs, as indicated in FIG. 9. Serial dilutions (1:5) starting at 0.20D/ml were spotted on YPD solid plate medium. […] Growth was at 30° C.
The experimental protocol described for Example 14 was also reproduced in vivo using Q-less coq3 yeast strains (FIG. 10) and different ratios of ALA to D4-ALA. Wild-type, yeast Q-less coq3, or respiratory deficient cor1 null mutants were incubated in the presence of 200 μM of ALA and D4-Lnn (Linolenic acid) at different ratios of PUFAs, as indicated in FIG. 10. Serial dilutions (1:5) starting at 0.2 OD/ml were spotted on YPD solid plate medium. Growth was at 30° C.

[2] = tested on: coq null mutants (Q-less yeast); details: for viability of coq null mutants after fatty acid treatment: 200 μM fatty acid, plate dilution assay; for viability of cells by quantitative colony counting: colony counting at 1, 2 and 4 h
Method: Yeast coq3, coq7 and coq9 null mutants were prepared in the W303 yeast genetic background (WT). […] Cells were washed twice with sterile water and resuspended in phosphate buffer (0.10 M sodium phosphate, pH 6.2, 0.2% dextrose) to an OD600 nm=0.2. Samples were removed and 1:5 serial dilutions starting at 0.20 OD/ml were plated on YPD plate medium, to provide a zero time untreated control (shown in top left panel). The designated fatty acids were added to 200 μM final concentration to 20 ml of yeast in phosphate buffer. At 2 h, 4 h, and 16 h samples were removed, 1:5 serial dilutions prepared, and spotted onto YPD plate medium. Pictures were taken after 2 days of growth at 30° C. This panel is representative of two independent assays, performed on different days.
The fatty acid sensitive assay was performed as described in FIG. 6-1, except that 100 μl aliquots were removed at 1, 2, and 4 h and, following dilution, spread onto YPD plates. Pictures were taken after 2 to 2.5 days, and the number of colonies counted. Yeast strains include Wild type (circles), atp2 (triangles), or coq3 (squares); Fatty acid treatments include oleic C18:1 (solid line), linolenic, C18:3, n-3 (dashed line) or 11,11,14,14-D4-linolenic, C18:3, n-3, (dotted line).
A plate dilution assay can be used to assess PUFA sensitivity. This assay can be performed by spotting serial five-fold dilutions of aliquots onto YPD plate media (FIG. 3). The sensitivity of the different strains can be observed by visual inspection of the density of cells in each spot.

[3] = Kinetics of O2 consumption during non-enzymatic chain oxidation in chlorobenzene initiated by AMVN; format: physicochemical; details: for rate of oxidation, ROX: 0.71 M in chlorobenzene, 40 mM AMVN, 37° C.
Method: FIG. 7. Kinetics of O2 consumption accompanied the oxidation of 0.71 M LA (plots 1 and 2) and 0.71 M D2-LA (plot 3) in chlorobenzene initiated by 40 mM AMVN at 37° C. Plot 2-0.23 mM HPMC was added to 0.71 M LA.
The kinetics of oxygen consumption during the oxidation of LA and D2-LA was studied with a glass capillary microvolumeter (FIG. 7). The rate of oxidation, ROX, was measured as a slope of [O2] traces. The rate of initiation, RIN, was determined by the inhibitor method with HPMC (“6-hydroxy-2,2,5,7,8-pentamethylbenzochroman”) as a reference inhibitor. RIN was calculated from the induction period of inhibited oxidation, tIND: RIN=2·[HPMC]/tIND. […] When the process was inhibited by 0.23 mM chain-breaking antioxidant HPMC, the duration of the induction period, tIND, was about 48 min, with the RIN value of around 0.16×10^−6 M/s. […] The latter precludes a direct determination of RIN. […] An estimated kinetic isotope effect (“KIE”), from comparison of ROX for LA and D2-LA, was around 6.1×10^−6/0.18×10^−6≈35. A similar KIE was determined during the oxidation of LA and 11,11-d2-LA in Triton X-100 aqueous micelles (data not shown). For comparative purposes, the theoretical KIE is 6.9 at 25° C. See Carpenter, “Determination of Organic Reaction Mechanisms” (John Wiley & Sons, 1984), p. 89.

[4] = Rate of oxidation of mixtures of LA and D2-LA in chlorobenzene; format: physicochemical
Method: FIG. 8. Dependence of the rate of oxidation of the mixture of LA and D2-LA in chlorobenzene solution on mixture composition. Conditions: [LA]+[11,11-d2-LA]=0.775 M; [AMVN]=0.0217 M; 37° C. RIN=(1.10±0.08)×10^−7 M/sec.
To simulate the likely in vivo conditions, the kinetics of the oxidation of the mixtures of D2-LA and LA were studied (FIG. 8). In the experiments, the concentration of LA plus 11,11-d2-LA was 0.775 M; the concentration of AMVN was 0.0217 M; and the reactions were carried out at 37° C. The results afforded an RIN of 1.10±0.08×10^−7 M/sec.

[5] = tested on: Wild-type yeast cells; assay: Copper-stress lipid peroxidation assay (C11-Bodipy 581/591 fluorescence); format: cell-based, S. cerevisiae; details: 200 μM fatty acid 2 hours, then 50 μM CuSO4 60 min
Method: Wild-type yeast cells were treated as described above except the yeast were treated with 200 μM of the designated fatty acid for 2 hours, washed with sterile water, and were either not treated (triangles) or treated with 50 μM CuSO4 (squares) at room temperature. After 60 min of copper treatment cells were treated with 8 μM C11-Bodipy 581/591 for 30 min at room temperature. Four 100 μl aliquots were plated in a 96-well plate and the fluorescence was measured.

[6] = tested on: coq null mutants (Q-less yeast); details: cited from earlier work; for sensitivity of Q-less yeast to fatty acid treatment: compared with wild-type parental strain
[7] = 70 kg person; cited from earlier work
[8] = tested on: wild-type yeast (W303); details: four hour treatment, strain W303-1B background; cited from earlier work

SMILES: [2H]C(/C=C\CCCCC)/C=C\CCCCCCCC(=O)O (stereo not shown) [11,11-D,H-LA, [11-^2H]-linoleic acid]
loss in cell viability ([1]; after 3 hours of treatment, data not shown): no detectable loss in cell viability

SMILES: [2H]C([2H])(/C=C\C/C=C\CC)C/C=C\CCCCCCC(=O)O [11, 11-D2-linolenic acid, 11,11-Dideutero-cis,cis,cis-octadeca-8,12,15-trienoic acid]
viability of coq null mutants after fatty acid treatment [2]: comparable protection

SMILES: [2H]C([2H])(/C=C\CC)/C=C\CC/C=C\CCCCCCC(=O)O [14, 14-D2-linolenic acid, 14,14-Dideutero-cis,cis,cis-octadeca-8,12,15-trienoic acid]
viability of coq null mutants after fatty acid treatment [2]: comparable protection

SMILES: [2H]C([2H])(/C=C\CCCCC)/C=C\CCCCCCCC(=O)O [D2-LA, 11,11-Dideutero-cis,cis-9,12-Octadecadienoic acid]
length of the kinetic chain, ν=ROX/RIN [3]: ≈ 1.1
rate of oxidation, ROX [3]: 1.8e-07 M/s
effect of addition of HPMC on oxidation ([3]; data not shown): did not result in the decrease in ROX and the appearance of any detectable induction period
estimated kinetic isotope effect (KIE) ([3]; from comparison of ROX for LA and D2-LA): ≈ 35
effect in mixture with non-deuterated methyl linoleate ([4]; data not shown): qualititatively similar effect
effect of D2-LA on autoxidation of non-deuterated LA ([4]; mixtures with LA): ‘protects’ the non-deuterated LA against autoxidation
levels of lipid peroxidation [5]: lower levels of lipid peroxidation similar to yeast not treated with PUFA
minimal amount of D2-LA to cancel the toxicity of LA ([1]; 200 μM total LA and D2-LA at different ratios): 10-15%

SMILES: [2H]C([2H])(/C=C\CC)/C=C\C([2H])([2H])/C=C\CCCCCCCC(=O)O [D4-ALA, 11,11,14,14-Tetradeutero-cis,cis,cis-9,12,15-Octadecatrienoic acid]
viability of coq null mutants after fatty acid treatment ([2]; listed as D4-linolenic acid): resistant to PUFA-mediated cell killing
viability of cells by quantitative colony counting [2]: similar
minimal amount of deuterated Lnn to cancel the toxicity of ALA ([1]; 200 μM total ALA and D4-Lnn at different ratios): 15-20%

length of the kinetic chain, ν=ROX/RIN [3]: 38±3
rate of oxidation, ROX [3]: 6.1e-06 M/s
rate of initiation, RIN ([3]; calculated from induction period, RIN=2·[HPMC]/tIND): around 0.16×10^−6 M/s
calculated oxidizability ([3]; n=5): 0.0215±0.008 M^−0.5 s^−0.5
SMILES: CCCCC/C=C\C/C=C\CCCCCCCC(=O)O [LA, cis,cis-9,12-Octadecadienoic acid, reference compound]

SMILES: CCCCC/C=C\C/C=C\C/C=C\C/C=C\CCCC(=O)O [arachidonic acid]
sensitivity of Q-less yeast to fatty acid treatment [6]: hypersensitive

SMILES: [2H]O[2H] [heavy water]
amount that might be drunk without serious consequences [7]: 4.8 L

SMILES: CC/C=C\C/C=C\C/C=C\CCCCCCCC(=O)O [linolenic acid, cis,cis,cis-9,12,15-Octadecatrienoic acid]
viable Q-less (coq2, coq3, and coq5) yeast mutants ([6]; four hour treatment): Less than 1%
wild-type cells that remain viable [8]: 70%
viability of coq null mutants after fatty acid treatment [2]: dramatic loss of viability

SMILES: CCCCCCCC/C=C\CCCCCCCC(=O)O [oleic acid, reference compound]
sensitivity of Q-less yeast to fatty acid treatment [6]: behave the same as the wild-type parental strain
viability of cells by quantitative colony counting [2]: similar

Reference: US11285125B2, “Oxidative retinal diseases” (priority 2011, dated 2022)
